# Laboratory results from PMC6858440, “Computational redesign of the Escherichia coli ribose-binding protein ligand binding pocket for 1,3-cyclohexanediol and cyclohexanol” (Scientific Reports, 2019).
# pKd: −log10 of the molar value.
# Target: RbsB ribose-binding protein (Escherichia coli, UniProt P02925)
# Assay: ITC with purified protein; also ~[…] °C Tm shift with […] ribose
# Chain of RbsB ribose-binding protein (P02925 26-296): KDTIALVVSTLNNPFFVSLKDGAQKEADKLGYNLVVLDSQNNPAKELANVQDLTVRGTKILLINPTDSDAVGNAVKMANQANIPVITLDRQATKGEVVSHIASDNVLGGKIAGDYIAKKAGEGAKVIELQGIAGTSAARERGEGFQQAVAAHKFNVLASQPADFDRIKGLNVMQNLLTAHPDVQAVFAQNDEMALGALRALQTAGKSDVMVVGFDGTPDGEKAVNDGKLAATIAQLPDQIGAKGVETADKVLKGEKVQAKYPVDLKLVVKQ
compound,measurement,value
O=C[C@H](O)[C@H](O)[C@H](O)CO [ribose],pKd,6.28
